The text below walks through data of patent US5208237A, “7-oxypropylsulfonamido-imidazo[4,5-b]quinolin-2-ones” (Bristol-Meyers Squibb Company, priority 1992, dated 1993).

One data set deals with human blood platelets. In words: In vitro inhibition of ADP-induced human platelet aggregation in platelet-rich plasma (aggregometer method of Born). To be noted: for IC50: Homo sapiens, Platelet, read-out: IC50 vs ADP in human PRP, human PRP, 3 min preincubation at about 37° C., final ADP 5.86 mM (so in the source).
A short description of a further data set: Aqueous solubility. It is filed as physicochemical. Particulars: water.
Setting [1] is: not marked as free base, read-out: Aqueous Solubility.
Where [2] appears, read: free base (* footnote), read-out: Aqueous Solubility of Free Base.

Converted amounts (≈) assume the structure as drawn. Structures can show the parent of a compound that is named as a salt. Where two headings read alike, the source gives them in different places.

Protocol for human blood platelets: The aggregometer method of Born, G. V. R., J. Physiol., (London), 162, 67-68, (1962) as modified by Mustard, J. F., et al., J. Lab. Clin. Med., 64, 548-599, (1964) was used to assess the in vitro activity of the various compounds as to the inhibition of adenosine diphosphate (ADP) and collagen-induced platelet aggregation. The human volunteer donor's arm is cleansed with 70% ethyl alcohol. A sterile 20 ml syringe and needle are used to withdraw 20 ml of blood. The blood is immediately added to a test tube containing 3.8% sodium citrate to prevent clotting (1 part citrate to 9 parts blood).
Platelet rich plasma (PRP) was separated by centrifugation for 10 minutes at 1000 rpm (140xg) from citrated (3.8%) human blood. All glassware used for preparation of PRP is silicon treated. ADP in final concentration of 0.5 μg/mL or 0.05 mL of a collagen suspension prepared according to the method described by Evans, G., et al., J. Exp. Med., 128, 877-894, (1968) was used to induce aggregation. The various compounds tested were dissolved in dimethylsulfoxide (DMSO) so that 5 μl added to the platelet rich plasma would yield the desired test concentration. Vehicle control trials were done and compared with aggregation induced in platelet rich plasma containing various concentrations of the test compounds. Dose response curves were obtained and Inhibitor Concentration (IC50) values calculated.
The test compounds were incubated at about 37° C. in PRP for about 3 minutes prior to the addition of sufficient ADP to provide a final ADP concentration of 5.86 mM.

In general, IC50 refers to the concentration needed to halve the response being measured. One may read the solubility as the concentration that dissolves in the medium under given conditions. For `Cl.Cl.O=c1[nH]c2cc3cc(OCCCS(=O)(=O)N4CCN(Cc5ccccc5)CC4)ccc3nc2[nH]1` [Compound 10c, 1-[[3-[(2,3-Dihydro-2-oxo-1H-imidazo[4,5-b]quinolin-7-yl)oxy]propyl]sulfonyl]-4-(phenylmethyl)piperazine dihydrochloride], in the data set with human blood platelets, the IC50 is 0.039 µg/mL. The solubility in “Aqueous solubility” (setting [1]) was over 20000 µg/mL.
Take `Cl.O=c1[nH]c2cc3cc(OCCCS(=O)(=O)N4CCN(c5nc6ccccc6s5)CC4)ccc3nc2[nH]1` [Compound 10i, 1-(Benzothiazol-2-yl)-4-[[3-[(2,3-dihydro-2-oxo-1H-imidazo[4,5-b]quinolin-7-yl)oxy]propyl]sulfonyl]piperazine hydrochloride]: in the data set on human blood platelets, the IC50 was 2.8 µg/mL. The solubility in “Aqueous solubility” (setting [1]) is about 1000 µg/mL.
Turning to `O=c1[nH]c2cc3cc(OCCCS(=O)(=O)N4CCNCC4)ccc3nc2[nH]1` [Compound 8, 1-[[3-[(2,3-Dihydro-2-oxo-1H-imidazo[4,5-b]quinolin-7-yl)oxy]propyl]sulfonyl]piperazine], the IC50 in the data set on human blood platelets stood at 7.2 µg/mL (≈ 18.4 µM). The solubility in the data set “Aqueous solubility” (setting [2]) is about 1000 µg/mL (≈ 2550 µM).
`Cl.Cl.O=c1[nH]c2cc3cc(OCCCS(=O)(=O)N4CCN(Cc5cccc(C(F)(F)F)c5)CC4)ccc3nc2[nH]1` [Compound 10m, 1-[[3-[(2,3-Dihydro-2-oxo-1H-imidazo[4,5-b]quinolin-7-yl)oxy]propyl]sulfonyl]-4-[(3-trifluoromethylphenyl)methyl]piperazine dihydrochloride]: in the data set on human blood platelets, the IC50 is 0.2 µg/mL. In addition, in the data set “Aqueous solubility” (setting [1]), the solubility was about 2000 µg/mL.
As to `Cl.Cl.O=c1[nH]c2cc3cc(OCCCS(=O)(=O)N4CCN(Cc5ccc(Cl)cc5)CC4)ccc3nc2[nH]1` [Compound 10e, 1-[[3-[(2,3-Dihydro-2-oxo-1H-imidazo[4,5-b]quinolin-7-yl)oxy]propyl]sulfonyl]-4-(4-chlorophenylmethyl) piperazine dihydrochloride], in the data set on human blood platelets, the IC50 is 0.32 µg/mL. Also, the solubility in “Aqueous solubility” (setting [1]) was over 20000 µg/mL.
`O=c1[nH]c2cc3cc(OCCCS(=O)(=O)N4CCN(Cc5ccccc5)CC4)ccc3nc2[nH]1` [Compound 9c]: the IC50 in the data set with human blood platelets came to 0.059 µg/mL (≈ 0.123 µM). The solubility in the data set “Aqueous solubility” (setting [2]) is about 1000 µg/mL (≈ 2080 µM).
For the compound `Cl.Cl.O=c1[nH]c2cc3cc(OCCCS(=O)(=O)N4CCN(Cc5ccc(F)cc5)CC4)ccc3nc2[nH]1` [Compound 10d, 1-[[3-[(2,3-Dihydro-2-oxo-1H-imidazo[4,5-b]quinolin-7-yl)oxy]propyl]sulfonyl]-4-(4-fluorophenylmethyl) piperazine dihydrochloride], the half-maximal inhibitory concentration (IC50) with human blood platelets was 0.16 µg/mL. Also, the solubility in “Aqueous solubility” (setting [1]) was over 20000 µg/mL.
As for `COc1ccc(CN2CCN(S(=O)(=O)CCCOc3ccc4nc5[nH]c(=O)[nH]c5cc4c3)CC2)cc1` [Compound 10f, 1-[[3-[(2,3-Dihydro-2-oxo-1H-imidazo[4,5-b]quinolin-7-yl)oxy]propyl]sulfonyl]-4-[(4-methoxyphenylmethyl)piperazinedihydrochloride], the IC50 in the data set on human blood platelets stood at 0.27 µg/mL. Moreover, in “Aqueous solubility” (setting [1]), the solubility is over 20000 µg/mL.
The matching figures for `Cl.Cl.O=c1[nH]c2cc3cc(OCCCS(=O)(=O)N4CCN(c5nc6ccccc6o5)CC4)ccc3nc2[nH]1` [Compound 10h, 1-(Benzoxazol-2-yl)-4-[[3-[(2,3-dihydro-2-oxo-1H-imidazo[4,5-b]quinolin-7-yl)oxy]propyl]sulfonyl]piperazine dihydrochloride]: 1.4 µg/mL and over 20000 µg/mL.
On to `O=CN1CCN(S(=O)(=O)CCCOc2ccc3nc4[nH]c(=O)[nH]c4cc3c2)CC1` [Compound 7, 3-[[(2,3-Dihydro-2-oxo-1H-imidazo[4,5-b]quinolin-7-yl)oxy]propyl]sulfonyll-1-piperazinecarboxaldehyde], for which the IC50 in the data set on human blood platelets amounted to 5.6 µg/mL (≈ 13.4 µM). Also, the solubility in the data set “Aqueous solubility” (setting [2]) was under 1000 µg/mL.
Turning to `Cl.Cl.O=c1[nH]c2cc3cc(OCCCS(=O)(=O)N4CCN(CC5CCCCC5)CC4)ccc3nc2[nH]1` [Compound 10g, 1-[[3-[(2,3-Dihydro-2-oxo-1H-imidazo[4,5-b]quinolin-7-yl)oxy]propyl]sulfonyl]-4-(cyclohexylmethyl) piperazine dihydrochloride], the IC50 in the data set with human blood platelets is 0.064 µg/mL. Besides, in “Aqueous solubility” (setting [1]), the solubility is over 20000 µg/mL.
The matching figures for `CCC(CC)CN1CCN(S(=O)(=O)CCCOc2ccc3nc4[nH]c(=O)[nH]c4cc3c2)CC1` [Compound 10l, 1-[[3-(2,3-Dihydro-2-oxo-1H-imidazo-[4,5-b]quinolin-7-yl)oxy]propyl]sulfonyl]-4-(2-ethylbut-1-yl)piperazine dihydrochloride]: 0.09 µg/mL and over 10000 µg/mL.
The like results for `O=c1[nH]c2cc3cc(OCCCS(=O)(=O)N4CCN(CCc5ccccc5)CC4)ccc3nc2[nH]1` [Compound 10k, 3-[[(2,3-Dihydro-2-oxo-1H-imidazo[4,5-b]quinolin-7-yl)oxy]propyl]sulfonyl]-4-(2-phenylethyl)piperazine dihydrochloride] were, in that order, 0.6 µg/mL and under 10000 µg/mL.
For `O=c1[nH]c2cc3cc(OCCCS(=O)(=O)N4CCNCC4)ccc3nc2[nH]1` [Compound 10a, 1-[[3-[(2,3-Dihydro-2-oxo-1H-imidazo[4-5-b]quinolin-7-yl)oxy]propyl]sulfonyl]piperazine dihydrochloride], the “IC50 vs ADP in human PRP” value in the data set on human blood platelets (human PRP, 3 min preincubation at about 37° C., final ADP 5.86 mM (so in the source), dihydrochloride) came out at 6.4 µg/mL. In addition, in “Aqueous solubility” (setting [1]), the solubility was over 20000 µg/mL.
Take `Cl.Cl.O=c1[nH]c2cc3cc(OCCCS(=O)(=O)N4CCN(CCC5CCCCC5)CC4)ccc3nc2[nH]1` [Compound 10j, 1-[[3-[(2,3-Dihydro-2-oxo-1H-imidazo[4,5-b]quinolin-7-yl)oxy]propyl]sulfonyl]-4-(2-cyclohexylethyl) piperazine dihydrochloride]: the IC50 in the data set with human blood platelets turned out to be 1.2 µg/mL. The solubility in the data set “Aqueous solubility” (setting [1]) was under 5000 µg/mL.
